# Source: patent US20090253669A1, “Substituted Sulfonamide Compounds” (GRUENENTHAL GmbH, priority 2008, published 2009)
# How the values were obtained:
# [1] = biological target: T1, human B1R receptor (hB1R) (Homo sapiens, UniProt P46663); experiment: FLIPR Ca2+ assay on hB1R-transfected CHO K1 cells, antagonistic action; assay type: cell-based; settings: CHO-K1, 10 μM test substance; agonist Lys-Des-Arg9-bradykinin 0.5 nM; % of maximum achievable inhibition; read-out: hB1R [10 μM] % inhibition
# T1 construct: host or cells: CHO K1 cells
# T1 sequence (P46663 1-353): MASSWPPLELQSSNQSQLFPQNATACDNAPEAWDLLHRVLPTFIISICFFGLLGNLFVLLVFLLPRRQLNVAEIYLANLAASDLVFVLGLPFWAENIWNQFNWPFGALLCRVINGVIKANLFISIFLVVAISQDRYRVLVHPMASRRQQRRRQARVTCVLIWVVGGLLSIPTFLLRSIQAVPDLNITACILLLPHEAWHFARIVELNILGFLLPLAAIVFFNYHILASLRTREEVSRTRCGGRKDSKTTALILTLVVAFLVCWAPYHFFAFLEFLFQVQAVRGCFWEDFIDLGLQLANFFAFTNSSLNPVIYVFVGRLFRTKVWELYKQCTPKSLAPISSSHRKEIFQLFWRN
# [2] = biological target: T2, B1R receptor of the rat (rB1R) (Rattus norvegicus, UniProt P97583); experiment: FLIPR Ca2+ assay on rB1R-transfected CHO K1 cells, antagonistic action; assay type: cell-based; settings: CHO-K1, 10 μM test substance; agonist Des-Arg9-bradykinin 100 nM; % of maximum achievable inhibition; read-out: rB1R [10 μM] % inhibition
# T2 construct: host or cells: CHO K1 cells
# T2 sequence (P97583 1-337): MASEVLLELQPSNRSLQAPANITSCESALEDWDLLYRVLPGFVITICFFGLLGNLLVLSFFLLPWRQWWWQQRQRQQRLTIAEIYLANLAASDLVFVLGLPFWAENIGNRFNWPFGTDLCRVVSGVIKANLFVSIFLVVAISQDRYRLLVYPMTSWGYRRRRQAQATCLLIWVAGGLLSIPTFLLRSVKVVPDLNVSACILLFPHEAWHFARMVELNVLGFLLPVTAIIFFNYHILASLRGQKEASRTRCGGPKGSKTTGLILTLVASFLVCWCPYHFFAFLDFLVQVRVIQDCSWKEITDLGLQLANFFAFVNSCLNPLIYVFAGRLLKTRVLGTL
Structure (SMILES),inhibition at 10 µM [1],inhibition at 10 µM [2]
"CN(CC1CCC(Cc2ccccc2)(N2CCCC2)CC1)C(=O)CC1CCCCN1S(=O)(=O)c1cccc(C(F)(F)F)c1 (centres unmarked) [Compound 94, N-((4-benzyl-4-(pyrrolidin-1-yl)cyclohexyl)methyl)-N-methyl-2-(1-(3-(trifluoromethyl)phenylsulfonyl)piperidin-2-yl)acetamide]",64%,93%
"CN(CCC1CCC(Cc2ccccc2)(N(C)C)CC1)C(=O)CC1CCCCN1S(=O)(=O)c1cccc(C(F)(F)F)c1 (centres unmarked) [Compound 95, N-(2-(4-benzyl-4-(dimethylamino)cyclohexyl)ethyl)-N-methyl-2-(1-(3-(trifluoromethyl)phenylsulfonyl)piperidin-2-yl)acetamide]",99%,93%
"CN1CCN(C2(c3ccc(F)cc3)CCN(C(=O)CC(NS(=O)(=O)c3ccc4ccccc4c3)c3ccccc3)CC2)CC1 (centres unmarked) [Compound 96, N-(3-(4-(4-fluorophenyl)-4-(4-methylpiperazin-1-yl)piperidin-1-yl)-3-oxo-1-phenylpropyl)naphthalene-2-sulfonamide]",100%,91%
"CN(C)C1(Cc2ccccc2)CCN(C(=O)CC2CCCCN2S(=O)(=O)c2cccc(C(F)(F)F)c2)CC1 (centres unmarked) [Compound 97, 1-(4-benzyl-4-(dimethylamino)piperidin-1-yl)-2-(1-(3-(trifluoromethyl)phenylsulfonyl)piperidin-2-yl)ethanone]",102%,91%
"O=C(CC(NS(=O)(=O)c1ccc2ccccc2c1)c1ccccc1)N1CCC(c2ccccc2)(N2CCN(c3ccncc3)CC2)CC1 (centres unmarked) [Compound 98, N-(3-oxo-1-phenyl-3-(4-phenyl-4-(4-(pyridin-4-yl)piperazin-1-yl)piperidin-1-yl)propyl)naphthalene-2-sulfonamide]",72%,91%
"Cc1cc(S(=O)(=O)N2CCCCC2CCC(=O)N2CCC(c3ccccc3)(N3CCN(c4ccncc4)CC3)CC2)c(C)cc1Cl (centres unmarked) [Compound 99, 3-(1-(4-chloro-2,5-dimethylphenylsulfonyl)piperidin-2-yl)-1-(4-phenyl-4-(4-(pyridin-4-yl)piperazin-1-yl)piperidin-1-yl)propan-1-one]",100%,90%
"O=C(COCC1CCc2ccccc2N1S(=O)(=O)c1ccc(Cl)c(Cl)c1)N1CCC(c2ccccc2)(N2CCN(c3ccncc3)CC2)CC1 (centres unmarked) [Compound 100, 2-((1-(3,4-dichlorophenylsulfonyl)-1,2,3,4-tetrahydroquinolin-2-yl)methoxy)-1-(4-phenyl-4-(4-(pyridin-4-yl)piperazin-1-yl)piperidin-1-yl)ethanone]",51%,88%
"CN(CCC1CCC(CCc2ccccc2)(N(C)C)CC1)C(=O)COCC1CCc2ccccc2N1S(=O)(=O)c1ccc(Cl)c(Cl)c1 (centres unmarked) [Compound 101, 2-((1-(3,4-dichlorophenylsulfonyl)-1,2,3,4-tetrahydroquinolin-2-yl)methoxy)-N-(2-(4-(dimethylamino)-4-phenethylcyclohexyl)ethyl)-N-methylacetamide]",99%,88%
"CN(CCC1CCC(CCc2ccccc2)(N(C)C)CC1)C(=O)CC(NS(=O)(=O)c1ccc2ccccc2c1)c1ccccc1 (centres unmarked) [Compound 102, N-(2-(4-(dimethylamino)-4-phenethylcyclohexyl)ethyl)-N-methyl-3-(naphthalene-2-sulfonamido)-3-phenylpropanamide]",97%,85%
"CN1CCN(C2(c3cccc(F)c3)CCN(C(=O)COCC3CCc4ccccc4N3S(=O)(=O)c3ccc(Cl)c(Cl)c3)CC2)CC1 (centres unmarked) [Compound 103, 2-((1-(3,4-dichlorophenylsulfonyl)-1,2,3,4-tetrahydroquinolin-2-yl)methoxy)-1-(4-(3-fluorophenyl)-4-(4-methylpiperazin-1-yl)piperidin-1-yl)ethanone]",73%,82%
"CN(CCC1CCC(Cc2ccccc2)(N2CCCC2)CC1)C(=O)COCC1CCc2ccccc2N1S(=O)(=O)c1ccc(Cl)c(Cl)c1 (centres unmarked) [Compound 104, N-(2-(4-benzyl-4-(pyrrolidin-1-yl)cyclohexyl)ethyl)-2-((1-(3,4-dichlorophenylsulfonyl)-1,2,3,4-tetrahydroquinolin-2-yl)methoxy)-N-methylacetamide]",60%,82%
"CN(C)C1(CCc2ccccc2)CCN(C(=O)CC(NS(=O)(=O)c2ccc3ccccc3c2)c2ccccc2)CC1 (centres unmarked) [Compound 105, N-(3-(4-(dimethylamino)-4-phenethylpiperidin-1-yl)-3-oxo-1-phenylpropyl)naphthalene-2-sulfonamide]",83%,81%
"CN(CCC1CCC(c2ccccc2)(N2CCCC2)CC1)C(=O)CC1CCCCN1S(=O)(=O)c1cccc(C(F)(F)F)c1 (centres unmarked) [Compound 106, N-methyl-N-(2-(4-phenyl-4-(pyrrolidin-1-yl)cyclohexyl)ethyl)-2-(1-(3-(trifluoromethyl)phenylsulfonyl)piperidin-2-yl)acetamide]",101%,79%
"Cc1cc(S(=O)(=O)N2CCCCC2CCC(=O)N(C)CCC2CCC(c3ccccc3)(N(C)C)CC2)c(C)cc1Cl (centres unmarked) [Compound 107, 3-(1-(4-chloro-2,5-dimethylphenylsulfonyl)piperidin-2-yl)-N-(2-(4-(dimethylamino)-4-phenylcyclohexyl)ethyl)-N-methylpropanamide]",105%,79%
"CN1CCN(C2(Cc3ccccc3)CCN(C(=O)COCC3CCc4ccccc4N3S(=O)(=O)c3ccc(Cl)c(Cl)c3)CC2)CC1 (centres unmarked) [Compound 108, 1-(4-benzyl-4-(4-methylpiperazin-1-yl)piperidin-1-yl)-2-((1-(3,4-dichlorophenylsulfonyl)-1,2,3,4-tetrahydroquinolin-2-yl)methoxy)ethanone]",60%,79%
"CN(C)C1(c2ccccc2)CCN(C(=O)COCC2CCc3ccccc3N2S(=O)(=O)c2ccc(Cl)c(Cl)c2)CC1 (centres unmarked) [Compound 109, 2-((1-(3,4-dichlorophenylsulfonyl)-1,2,3,4-tetrahydroquinolin-2-yl)methoxy)-1-(4-(dimethylamino)-4-phenylpiperidin-1-yl)ethanone]",80%,78%
"Cc1cc(S(=O)(=O)N2CCCCC2CCC(=O)N2CCC(c3ccccc3)(N3CCN(C)CC3)CC2)c(C)cc1Cl (centres unmarked) [Compound 110, 3-(1-(4-chloro-2,5-dimethylphenylsulfonyl)piperidin-2-yl)-1-(4-(4-methylpiperazin-1-yl)-4-phenylpiperidin-1-yl)propan-1-one]",104%,78%
"CN(CCC1CCC(c2ccccc2)(N(C)C)CC1)C(=O)COCC1CCc2ccccc2N1S(=O)(=O)c1ccc(Cl)c(Cl)c1 (centres unmarked) [Compound 111, 2-((1-(3,4-dichlorophenylsulfonyl)-1,2,3,4-tetrahydroquinolin-2-yl)methoxy)-N-(2-(4-(dimethylamino)-4-phenylcyclohexyl)ethyl)-N-methylacetamide]",80%,78%
"CN(CC1CCC(Cc2ccccc2)(N2CCCC2)CC1)C(=O)CC(NS(=O)(=O)c1ccc2ccccc2c1)c1ccccc1 (centres unmarked) [Compound 112, N-((4-benzyl-4-(pyrrolidin-1-yl)cyclohexyl)methyl)-N-methyl-3-(naphthalene-2-sulfonamido)-3-phenylpropanamide]",97%,77%
"O=C(CC1CCCCN1S(=O)(=O)c1cccc(C(F)(F)F)c1)N1CCC(c2ccccc2)(N2CCN(c3ccncc3)CC2)CC1 (centres unmarked) [Compound 113, 1-(4-phenyl-4-(4-(pyridin-4-yl)piperazin-1-yl)piperidin-1-yl)-2-(1-(3-(trifluoromethyl)phenylsulfonyl)piperidin-2-yl)ethanone]",79%,74%
"CN(CCC1CCC(CCc2ccccc2)(N2CCCC2)CC1)C(=O)CC(NS(=O)(=O)c1ccc2ccccc2c1)c1ccccc1 (centres unmarked) [Compound 114, N-methyl-3-(naphthalene-2-sulfonamido)-N-(2-(4-phenethyl-4-(pyrrolidin-1-yl)cyclohexyl)ethyl)-3-phenylpropanamide]",96%,73%
"CN1CCN(C2(c3ccccc3)CCN(C(=O)COCC3CCc4ccccc4N3S(=O)(=O)c3ccc(Cl)c(Cl)c3)CC2)CC1 (centres unmarked) [Compound 115, 2-((1-(3,4-dichlorophenylsulfonyl)-1,2,3,4-tetrahydroquinolin-2-yl)methoxy)-1-(4-(4-methylpiperazin-1-yl)-4-phenylpiperidin-1-yl)ethanone]",71%,72%
